Measurements from patent publication US11242361B2 (Proteostasis Therapeutics, Inc., priority 2013, dated 2022).

Molecular target: USP14 (Homo sapiens (Human), UniProt P54578)
Experiment: USP14 Inhibition Assay
Assay type: biochemical
Details: average value from a minimum of two experimental determinations; for IC50: read-out: IC50 Category
Experimental: Example 17: USP14 Inhibition Assay
“I” in the Table below designates an IC50 of >5 μM, “II” in the Table below designates and IC50 between 0.5 and 5 μM, and “III” designates an IC50<0.5 μM. The IC50 values in the Table below represent the average value from a minimum of two experimental determinations.

USP14, sequence (P54578 whole entry, looked up): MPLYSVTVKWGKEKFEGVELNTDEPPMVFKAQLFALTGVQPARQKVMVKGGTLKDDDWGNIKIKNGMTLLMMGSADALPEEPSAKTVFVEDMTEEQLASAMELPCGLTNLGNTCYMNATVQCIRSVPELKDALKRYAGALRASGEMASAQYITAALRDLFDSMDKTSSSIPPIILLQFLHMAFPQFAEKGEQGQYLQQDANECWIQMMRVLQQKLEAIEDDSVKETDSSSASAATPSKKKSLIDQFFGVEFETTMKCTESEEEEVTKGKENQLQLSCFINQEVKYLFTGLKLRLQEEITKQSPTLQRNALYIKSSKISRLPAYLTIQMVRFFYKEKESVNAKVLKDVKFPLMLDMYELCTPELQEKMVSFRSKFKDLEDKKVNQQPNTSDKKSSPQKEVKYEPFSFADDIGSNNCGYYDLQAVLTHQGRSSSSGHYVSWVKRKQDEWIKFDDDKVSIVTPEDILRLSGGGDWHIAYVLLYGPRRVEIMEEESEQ

Compound | IC50 [nM] | IC50 Category
Cc1c(C(=O)CN2CCCCC2)c2nc(O)ccc2n1-c1ccc(C#N)cc1 [Compound 127, 4-(5-Hydroxy-2-methyl-3-(2-(piperidin-1-yl)acetyl)-1H-pyrrolo[3,2-b]pyridin-1-yl)benzonitrile] | > 5000 | –
Cc1c(C(=O)CN2CCCCC2)c2ncccc2n1-c1ccc(Cl)nc1 [Compound 149] | 500 to 5000 | –
Cc1c(C(=O)CN2CCCCC2)c2nc(-n3ccnn3)ccc2n1-c1ccc(C#N)cc1 [Compound 209, 4-(2-Methyl-3-(2-(piperidin-1-yl)acetyl)-5-(1H-1,2,3-triazol-1-yl)-1H-pyrrolo[3,2-b]pyridin-1-yl)benzonitrile] | < 500 | –
Cc1c(C(=O)CN2CC[C@H](O)[C@H](O)C2)c2ncc(Br)cc2n1-c1ccc(C#N)cc1 [Compound 356] | < 500 | –
Cc1cnc2c(C(=O)CN3CCCC(F)C3)c(C)n(-c3ccc(C#N)cc3)c2c1 (stereo not drawn) [Compound 189] | < 500 | –
Cc1c(C(=O)CN2CCCCC2)c2ncc(C(F)(F)F)cc2n1-c1ccc(C#N)cc1 [Compound 300] | < 500 | –
C=Cc1ccc2c(C(=O)CN3CCCCC3)c(C)n(-c3ccc(C#N)cc3)c2c1 [Compound 206, 4-(2-Methyl-3-(2-(piperidin-1-yl)acetyl)-6-vinyl-1H-indol-1-yl)benzonitrile] | < 500 | –
Cc1c(C(=O)CN2CCC[C@@H]2C)c2ncc(Br)cc2n1-c1ccc(C#N)cc1 [Compound 307] | < 500 | –
Cc1c(C(=O)CN2CCSCC2)c2ncc(Br)cc2n1-c1ccc(C#N)cc1 [Compound 331] | < 500 | –
Cc1c(C(=O)CN2CCCCC2)c2cc(N)ccc2n1-c1ccc(C#N)cc1 [Compound 186, 4-(5-Amino-2-methyl-3-(2-(piperidin-1-yl)acetyl)-1H-indol-1-yl)benzonitrile] | < 500 | –
CC(=O)Oc1ccc2c(C(=O)CN3CCCCC3)c(C)n(-c3ccc(Cl)cc3)c2c1 [Compound 172, 1-(4-Chlorophenyl)-2-methyl-3-(2-(piperidin-1-yl)acetyl)-1H-indol-6-yl Acetate] | < 500 | –
Cc1c(C(=O)CN2CCS(=O)(=O)CC2)c2ncc(Br)cc2n1-c1ccc(C#N)cc1 [Compound 327] | > 5000 | –
Cc1c(C(=O)CN2CCC(O)CC2)c2ncccc2n1-c1ccc(Cl)cc1 [Compound 388] | < 500 | –
COc1ccc2c(C(=O)CN3CCCCC3)c(C)n(-c3ccc(Cl)cc3)c2c1 [Compound 178] | < 500 | –
Cc1nc2c(C(=O)CN3CCCCC3)c(C)n(-c3ccc(C#N)cc3)c2cc1CCC(N)=O [Compound 210, 3-(1-(4-Cyanophenyl)-2,5-dimethyl-3-(2-(piperidin-1-yl)acetyl)-1H-pyrrolo[3,2-b]pyridin-6-yl)propanamide] | < 500 | –
Cc1c(C(=O)CN2CCC[C@H]2C)c2ncc(Br)cc2n1-c1ccc(C#N)cc1 [Compound 306] | – | IIII
COc1cnc2c(C(=O)CN3CCC(CN(C)C)CC3)c(C)n(-c3ccc(C#N)cc3)c2c1 [Compound 370] | < 500 | –
Cc1c(C(=O)CN2[C@H](C)CCC[C@H]2C)c2ncc(Br)cc2n1-c1ccc(C#N)cc1 [Compound 373] | 500 to 5000 | –
Cc1cnc2c(C(=O)CN3CCCCC3)c(C)n(-c3ccc(C#N)cc3)c2c1 [Compound 184, 4-(2,6-Dimethyl-3-(2-(piperidin-1-yl)acetyl)-1H-pyrrolo[3,2-b]pyridin-1-yl)benzonitrile] | < 500 | –

Compound | IC50 [nM] | IC50 Category
CC(C)c1c(C(=O)CN2CCCCC2)c2ncccc2n1-c1ccc(C#N)cc1 [Compound 336] | > 5000 | –
Cc1c(C(=O)CN2CCC(O)CC2)c2ccccc2n1-c1ncc(Cl)cn1 [Compound 400] | > 5000 | –
Cc1c(C(=O)CN2CCC(CC(=O)O)CC2)c2ncc(Br)cc2n1-c1ccc(Cl)cc1 [Compound 371] | > 5000 | –
CC(=O)Nc1ccc2c(c1)c(C(=O)CN1CCCCC1)c(C)n2-c1ccc(C#N)cc1 [Compound 191, N-(1-(4-Cyanophenyl)-2-methyl-3-(2-(piperidin-1-yl)acetyl)-1H-indol-5-yl)acetamide] | < 500 | –
Cc1c(C(=O)CN2CCC(CN)CC2)c2ncc(Br)cc2n1-c1ccc(C#N)cc1 [Compound 354] | < 500 | –
Cc1c(C(=O)CN2CCC(O)CC2)c2ncc(CCC(=O)NCCCC#N)cc2n1-c1ccc(C#N)cc1 [Compound 362] | < 500 | –
Cc1c(C(=O)CN2CCCCC2)c2ccc(CO)cc2n1-c1ccc(Cl)cc1 [Compound 182, 1-(1-(4-Chlorophenyl)-6-(hydroxymethyl)-2-methyl-1H-indol-3-yl)-2-(piperidin-1-yl)ethan-1-one] | < 500 | –
CCOC(=O)C[C@@H](C)c1cnc2c(C(=O)CN3CCCCC3)c(C)n(-c3ccc(C#N)cc3)c2c1 [Compound 350, Ethyl (R)-3-(1-(4-Cyanophenyl)-2-methyl-3-(2-(piperidin-1-yl)acetyl)-1H-pyrrolo[3,2-b]pyridin-6-yl)butanoate] | < 500 | –
COc1ccc2c(c1)c(C(=O)CN1CCCCC1)c(C)n2-c1ccc(Cl)cc1 [Compound 155] | < 500 | –
CC(=O)OCc1ccc2c(C(=O)CN3CCCCC3)cn(-c3ccc(Cl)cc3)c2c1 [Compound 118, (1-(4-Chlorophenyl)-3-(2-(piperidin-1-yl)acetyl)-1H-indol-6-yl)methyl Acetate] | > 5000 | –
COc1c(C(=O)CN2CCCCC2)c2ccccc2n1-c1ccc(Cl)cc1 [Compound 132, 1-(1-(4-Chlorophenyl)-2-methoxy-1H-indol-3-yl)-2-(piperidin-1-yl)ethan-1-one] | > 5000 | –
Cc1c(C(=O)CN2CCCCC2)c2ncc(CCC(=O)NCCCN=[N+]=[N-])cc2n1-c1ccc(C#N)cc1 [Compound 299] | < 500 | –
Cc1c(C(=O)CN2CCCCC2)c2ncc(C#CCOC(=O)N(C)C)cc2n1-c1ccc(C#N)cc1 [Compound 319, 3-(1-(4-Cyanophenyl)-2-methyl-3-(2-(piperidin-1-yl)acetyl)-1H-pyrrolo[3,2-b]pyridin-6-yl)prop-2-yn-1-yl Dimethylcarbamate] | < 500 | –
CCOC(=O)CNCC1CCN(CC(=O)c2c(C)n(-c3ccc(C#N)cc3)c3cc(Br)cnc23)CC1 [Compound 368] | 500 to 5000 | –
Cc1c(C(=O)CN2CCCCC2)c2ccc(CCO)cc2n1-c1ccc(C#N)cc1 [Compound 207, 4-(6-(2-Hydroxyethyl)-2-methyl-3-(2-(piperidin-1-yl)acetyl)-1H-indol-1-yl)benzonitrile] | < 500 | –
Cc1c(C(=O)CN2CC[C@H](O)[C@H](O)C2)c2ncc(Br)cc2n1-c1ccc(C#N)cc1 [Compound 332] | < 500 | –
Cc1c(C(=O)CN2CCC(O)CC2)c2ccccc2n1-c1ccc(Cl)cc1 [Compound 86] | < 500 | –
[2H]C1([2H])N(CC(=O)c2c(C)n(-c3ccc(C#N)cc3)c3cc(Br)cnc23)C([2H])([2H])C([2H])([2H])C([2H])([2H])C1([2H])[2H] [Compound 320] | < 500 | –
Cc1c(C(=O)CN2CCCCC2)c2ccc(C(C)C)cc2n1-c1ccc(C#N)cc1 [Compound 180, 4-(6-Isopropyl-2-methyl-3-(2-(piperidin-1-yl)acetyl)-1H-indol-1-yl)benzonitrile] | < 500 | –

Compound | IC50 [nM] | IC50 Category
Cc1c(C(=O)CN2CCCCC2)c2ccc(C#N)cc2n1-c1ccc(C#N)cc1 [Compound 175] | < 500 | –
Cc1c(C(=O)CN2CCC(O)CC2)c2ccccc2n1-c1cccnc1 [Compound 395] | > 5000 | –
Cc1c(C(=O)CN2CCCCC2)c2cc([N+](=O)[O-])ccc2n1-c1ccc(Cl)cc1 [Compound 150] | 500 to 5000 | –
Cc1c(C(=O)CN2CCCCC2)c2ncc(CCC(=O)NCCN=[N+]=[N-])cc2n1-c1ccc(C#N)cc1 [Compound 304] | < 500 | –
4-(2-Methyl-3-(2-(piperidin-1-yl)acetyl)-1H-indol-1-yl)benzonitrile [Compound 160] | < 500 | –
Cc1c(C(=O)CN2CCCCC2)c2ncc(C(F)F)cc2n1-c1ccc(C#N)cc1 [Compound 301, 4-(6-(Difluoromethyl)-2-methyl-3-(2-(piperidin-1-yl)acetyl)-1H-pyrrolo[3,2-b]pyridin-1-yl)benzonitrile] | < 500 | –
O=C(CN1CCCC1)c1cn(-c2ccc(Cl)cc2)c2ccccc12 [Compound 34] | > 5000 | –
Cc1ccc2c(c1)c(C(=O)CN1CCCCC1)c(C)n2-c1ccc(Cl)cc1 [Compound 156] | < 500 | –
Cc1c(C(=O)CN2CCCCC2)c2c(F)cccc2n1-c1ccc(C#N)cc1 [Compound 168] | < 500 | –
Cc1c(C(=O)CN2CCC(O)CC2)c2ccccc2n1-c1ccc(F)cc1 [Compound 389] | < 500 | –
CCCC(=O)CCc1cnc2c(C(=O)CN3CCCCC3)c(C)n(-c3ccc(Cl)cc3)c2c1 [Compound 387] | < 500 | –
CCOC(=O)CC1CCN(CC(=O)c2c(C)n(-c3ccc(C#N)cc3)c3cc(Br)cnc23)CC1 [Compound 365] | 500 to 5000 | –
Cc1c(C(=O)CN2CCC(O)CC2)c2ccccc2n1-c1ccncc1 [Compound 396] | > 5000 | –
Cc1c(C(=O)CN2CCC(N)CC2)c2ncc(Br)cc2n1-c1ccc(C#N)cc1 [Compound 367] | 500 to 5000 | –
CNc1ccc2c(c1)c(C(=O)CN1CCCCC1)c(C)n2-c1ccc(C#N)cc1 [Compound 199, 4-(2-Methyl-5-(methylamino)-3-(2-(piperidin-1-yl)acetyl)-1H-indol-1-yl)benzonitrile] | < 500 | –
CC(=O)N(C)c1ccc2c(c1)c(C(=O)CN1CCCCC1)c(C)n2-c1ccc(C#N)cc1 [Compound 196, N-(1-(4-Cyanophenyl)-2-methyl-3-(2-(piperidin-1-yl)acetyl)-1H-indol-5-yl)-N-methylacetamide] | < 500 | –
Cc1c(C(=O)CN2CCCCC2)c2cc(Oc3ccccc3)ccc2n1-c1ccc(Cl)cc1 [Compound 145] | 500 to 5000 | –
Cc1c(C(=O)CN2CC=CC2)c2ncc(Br)cc2n1-c1ccc(C#N)cc1 [Compound 315] | < 500 | –
Cc1c(C(O)CN2CCCCC2)c2ccc(CO)cc2n1-c1ccc(Cl)cc1 (stereo not drawn) [Compound 130, 1-(1-(4-Chlorophenyl)-6-(hydroxymethyl)-2-methyl-1H-indol-3-yl)-2-(piperidin-1-yl)ethan-1-ol] | > 5000 | –
